Test results reported in US20210355105A1, “REGULATOR OF NITROGEN-CONTAINING HETEROAROMATIC DERIVATIVES, PREPARATION METHOD THEREFOR AND USE THEREOF” (Jiangsu Hansoh Pharmaceutical Group Co., Ltd., priority 2018, published 2021).

Columns and labels:
[1] = Pharmacokinetics assay in MiaPaca 2 tumor-bearing mice (plasma, tumor tissue, intestine); type: in vivo; conditions: female, mouse, oral 6 mg/kg
Protocol: MiaPaca 2 tumor-bearing mice were used as test animals.
Twenty-four female MiaPaca 2 tumor-bearing mice were used. Three mice were used for each time point (0 hour, 1 hour, 2 hours, 4 hours, 6 hours, 8 hours, 16 hours and 24 hours). The mice were purchased from Shanghai Sippr-BK laboratory animal Co. Ltd., with Certificate No.: SCXK (Shanghai) 2018-0006.
The solution was shaked well, and subjected to ultrasound for 15 minutes to obtain a uniform suspension with a concentration of 0.6 mg/mL.
After fast, MiaPaca 2 tumor-bearing mice were administered orally (p.o.) with the test compound according to body weight at an administration dose of 6 mg/kg and an administration volume of 10 mL/kg (the animals were not administered with the test compound on 0 hour).
The mice were euthanized by CO2 before administration and after administration, and 0.5 mL of blood was taken from heart. The blood samples were stored in EDTA-2K tubes, and centrifuged for 6 minutes at 6000 rpm, at 4° C. to separate the blood plasma. The plasma samples were stored at −80° C. The tumor tissue was weighed, placed in a 2 mL centrifuge tube, and stored at −80° C. An appropriate length of duodenum, ileum and colon tissues were taken and cut open with scissors, and the contents were removed. The above tissues were washed with PBS twice, and the moisture was absorbed with absorbent paper. The tissues were weighed, placed in a 2 mL centrifuge tube, and stored at −80° C.

[2] = Pharmacokinetics assay in rats, single intravenous injection; type: in vivo; conditions: male SD rats
Protocol: SD rats were used as test animals.
The solution was subjected to ultrasound to obtain a clear solution. The solution was filtered with a 0.22 μm water filter, and the filtrate was the formulation for intravenous administration (i.v.). The concentration was 0.2 mg/mL.
After an overnight fast, male SD rats (3 rats per group) were administered intravenously with the test compounds at an administration dose of 1 mg/kg and an administration volume of 5 mL/kg.
0.2 mL of blood was taken from jugular vein before administration and at 0 minute, 5 minutes, 15 minutes, 0.5 hour, 1.0 hour, 2.0 hours, 4.0 hours, 8.0 hours and 24.0 hours after administration. The blood samples were stored in EDTA-2K tubes, and centrifuged for 6 minutes at 6000 rpm, at 4° C. to separate the blood plasma. The plasma samples were stored at −80° C. The rats were fed four hours after administration.

AUC(0-inf) ([1]; Colon): 9180 ng·h/mL | Cmax ([1]; Colon): 1310 ng/mL | MRT ([1]; Colon): 5.8 h | Tmax ([1]; Colon): 4 h | half-life ([1]; Colon): 168 min | AUC(0-inf) ([1]; Duodenum): 16300 ng·h/mL | Cmax ([1]; Duodenum): 5420 ng/mL | MRT ([1]; Duodenum): 4.8 h | Tmax ([1]; Duodenum): 1 h | half-life ([1]; Duodenum): 288 min | AUC(0-inf) ([1]; Ileum): 10000 ng·h/mL | Cmax ([1]; Ileum): 1930 ng/mL | MRT ([1]; Ileum): 6.1 h | Tmax ([1]; Ileum): 2 h | half-life ([1]; Ileum): 318 min | AUC(0-inf) ([1]; Plasma): 2860 ng·h/mL | Cmax ([1]; Plasma): 386 ng/mL | MRT ([1]; Plasma): 7.5 h | Tmax ([1]; Plasma): 1 h | half-life ([1]; Plasma): 288 min | AUC(0-inf) ([1]; Tumor): 51800 ng·h/mL | Cmax ([1]; Tumor): 2390 ng/mL | MRT ([1]; Tumor): 19.1 h | Tmax ([1]; Tumor): 8 h | half-life ([1]; Tumor): 690 min | F ([2]; printed in the i.v. 1 mg/kg table): 118% | AUC(0-inf) ([2]; rat, iv, i.v. 1 mg/kg, plasma): 613 ng·h/mL | C0 ([2]; rat, iv, i.v. 1 mg/kg, plasma): 311 ng/mL | MRT ([2]; rat, iv, i.v. 1 mg/kg, plasma): 4.26 h | clearance ([2]; rat, iv, i.v. 1 mg/kg, plasma): 27.2 mL/min/kg | half-life ([2]; rat, iv, i.v. 1 mg/kg, plasma): 201 min | Vd ([2]; rat, iv, i.v. 1 mg/kg, plasma, read-out: Vss): 7 L/kg
Compound: Nc1nc(N2CCC3(CC2)Cc2ccccc2[C@H]3N)c(F)nc1Sc1ccnc(N)c1Cl [Example 179, (S)-1′-(6-amino-5-((2-amino-3-chloropyridin-4-yl)thio)-3-fluoropyrazin-2-yl)-1,3-dihydrospiro[indene-2,4′-piperidin]-1-amine]
